# Toxic doses and inconclusive results are not listed.
# Tested on: CD2F1 mice, L1210 leukemia ip, survival T/C
# Experiment: NCI In Vivo Anticancer Drug Screen. Data for tumor model L1210 Leukemia (intraperitoneal) in CD2F1 (CDF1) mice
# Settings: higher = longer survival
# In short: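 Read-out first: treated-group measurement over vehicle-control measurement, expressed as a ratio. Animals bore a transplanted tumor line and were dosed with compound or vehicle.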
# [1] = endpoint: mean survival time, dose: 100.0 mg/kg/injection, schedule: Q01DX009 (ip), vehicle: saline with Tween-80
# [2] = endpoint: mean survival time, dose: 100.0 mg/kg/injection, schedule: Q04DX002 (ip), vehicle: saline with Tween-80
# [3] = endpoint: mean survival time, dose: 100.0 mg/kg/injection, schedule: Q01DX001 (ip), vehicle: saline with Tween-80
# [4] = endpoint: mean survival time, dose: 200.0 mg/kg/injection, schedule: Q01DX001 (ip), vehicle: saline with Tween-80
# [5] = endpoint: mean survival time, dose: 400.0 mg/kg/injection, schedule: Q01DX001 (ip), vehicle: saline with Tween-80
# [6] = endpoint: mean survival time, dose: 100.0 mg/kg/injection, schedule: Q04DX003 (ip), vehicle: saline with Tween-80
# [7] = endpoint: mean survival time, dose: 200.0 mg/kg/injection, schedule: Q04DX003 (ip), vehicle: saline with Tween-80
# [8] = endpoint: mean survival time, dose: 400.0 mg/kg/injection, schedule: Q04DX003 (ip), vehicle: saline with Tween-80
# [9] = endpoint: mean survival time, dose: 200.0 mg/kg/injection, schedule: Q01DX009 (ip), vehicle: saline with Tween-80
# [10] = endpoint: mean survival time, dose: 400.0 mg/kg/injection, schedule: Q01DX009 (ip), vehicle: saline with Tween-80
# [11] = endpoint: mean survival time, dose: 50.0 mg/kg/injection, schedule: Q01DX001 (ip), vehicle: carboxymethylcellulose (CMC)
compound,measurement,setting,value
CN(Cc1ccccc1)N=Nc1ccccc1,T/C,"endpoint: mean survival time, dose: 18.75 mg/kg/injection, schedule: Q01DX009 (ip), vehicle: Klucel (hydroxypropylcellulose) (HPC)",103 % of control
same,T/C,"endpoint: mean survival time, dose: 37.5 mg/kg/injection, schedule: Q01DX009 (ip), vehicle: Klucel (hydroxypropylcellulose) (HPC)",107 % of control
same,T/C,"endpoint: mean survival time, dose: 75.0 mg/kg/injection, schedule: Q01DX001 (ip), vehicle: saline",108 % of control
same,T/C,"endpoint: mean survival time, dose: 75.0 mg/kg/injection, schedule: Q01DX009 (ip), vehicle: Klucel (hydroxypropylcellulose) (HPC)",113 % of control
same,T/C,"endpoint: mean survival time, dose: 150.0 mg/kg/injection, schedule: Q01DX001 (ip), vehicle: saline",108 % of control
same,T/C,"endpoint: mean survival time, dose: 150.0 mg/kg/injection, schedule: Q01DX009 (ip), vehicle: Klucel (hydroxypropylcellulose) (HPC)",119 % of control
same,T/C,"endpoint: mean survival time, dose: 300.0 mg/kg/injection, schedule: Q01DX001 (ip), vehicle: saline",111 % of control
CC(C)c1cccc(O)c(=O)c1,T/C,"endpoint: mean survival time, dose: 50.0 mg/kg/injection, schedule: Q01DX009 (ip), vehicle: saline with Tween-80",102 % of control
same,T/C,[1],100 % of control
CCOC(=O)NOP(=O)(N1CC1)N1CC1,T/C,"endpoint: mean survival time, dose: 12.5 mg/kg/injection, schedule: Q04DX002 (ip), vehicle: saline with Tween-80",116 % of control
same,T/C,"endpoint: mean survival time, dose: 50.0 mg/kg/injection, schedule: Q04DX002 (ip), vehicle: saline with Tween-80",166 % of control
same,T/C,[2],186 % of control
CN(Cc1cnc2nc(N)nc(N)c2n1)c1ccc(C(=O)NC(CCC(=O)NC(CCC(=O)O)C(=O)O)C(=O)O)cc1 (configuration not stated),T/C,"endpoint: mean survival time, dose: 2.5 mg/kg/injection, schedule: Q01DX009 (ip), vehicle: sodium bicarbonate",165 % of control
same,T/C,"endpoint: mean survival time, dose: 5.0 mg/kg/injection, schedule: Q01DX009 (ip), vehicle: sodium bicarbonate",119 % of control
same,T/C,"endpoint: mean survival time, dose: 10.0 mg/kg/injection, schedule: Q01DX009 (ip), vehicle: sodium bicarbonate",89 % of control
Cc1cn2ccccc2c[n+]1=O,T/C,"endpoint: mean survival time, dose: 5.0 mg/kg/injection, schedule: Q04DX003 (ip), vehicle: saline with Tween-80",103 % of control
same,T/C,"endpoint: mean survival time, dose: 10.0 mg/kg/injection, schedule: Q04DX003 (ip), vehicle: saline with Tween-80",108 % of control
same,T/C,"endpoint: mean survival time, dose: 20.0 mg/kg/injection, schedule: Q04DX003 (ip), vehicle: saline with Tween-80",97 % of control
Oc1ccccc1/C=N/c1nc(-c2ccccc2)cs1,T/C,[3],86 % of control
same,T/C,[4],107 % of control
same,T/C,[5],93 % of control
COc1ccccc1NC(=O)Oc1ccc(SC)c(C)c1,T/C,[2],100 % of control
same,T/C,"endpoint: mean survival time, dose: 200.0 mg/kg/injection, schedule: Q04DX002 (ip), vehicle: saline with Tween-80",95 % of control
same,T/C,"endpoint: mean survival time, dose: 400.0 mg/kg/injection, schedule: Q04DX002 (ip), vehicle: saline with Tween-80",95 % of control
CC(O)(P(=O)(O)O)P(=O)(O)O.[NH-]CC[NH-].[NH-]CC[NH-].[Pt+2].[Pt+2],T/C,"endpoint: mean survival time, dose: 3.13 mg/kg/injection, schedule: Q04DX003 (ip), vehicle: distilled water + Tween-80",104 % of control
same,T/C,"endpoint: mean survival time, dose: 6.25 mg/kg/injection, schedule: Q04DX003 (ip), vehicle: distilled water + Tween-80",104 % of control
same,T/C,"endpoint: mean survival time, dose: 12.5 mg/kg/injection, schedule: Q04DX003 (ip), vehicle: distilled water + Tween-80",88 % of control
same,T/C,"endpoint: mean survival time, dose: 25.0 mg/kg/injection, schedule: Q04DX003 (ip), vehicle: distilled water + Tween-80",103 % of control
same,T/C,"endpoint: mean survival time, dose: 50.0 mg/kg/injection, schedule: Q04DX003 (ip), vehicle: distilled water + Tween-80",119 % of control
same,T/C,"endpoint: mean survival time, dose: 100.0 mg/kg/injection, schedule: Q04DX003 (ip), vehicle: distilled water + Tween-80",124 % of control
same,T/C,"endpoint: mean survival time, dose: 200.0 mg/kg/injection, schedule: Q04DX003 (ip), vehicle: distilled water + Tween-80",111 % of control
CC(Cl)CN(CC(C)Cl)c1ccc2c(c1)Cc1cc([N+](=O)[O-])ccc1-2 (configuration not stated),T/C,[6],93 % of control
same,T/C,[7],96 % of control
same,T/C,[8],96 % of control
O=C(N/N=C(/C(=N/NC(=O)c1ccccc1)c1ccccc1)c1ccccc1)c1ccccc1,T/C,[7],91 % of control
same,T/C,[8],87 % of control
CC(CCOc1ccc2ccc(=O)oc2c1)C1=CC(=O)C(C)(C)O1 (configuration not stated),T/C,"endpoint: mean survival time, dose: 50.0 mg/kg/injection, schedule: Q01DX001 (ip), vehicle: saline with Tween-80",113 % of control
same,T/C,[3],95 % of control
same,T/C,[4],98 % of control
O=C(O)c1cccc(N=Nc2ccc(N(CCCl)CCCl)cc2)c1,T/C,"endpoint: mean survival time, dose: 10.0 mg/kg/injection, schedule: Q01DX009 (ip), vehicle: Klucel (hydroxypropylcellulose) (HPC)",121 % of control
same,T/C,"endpoint: mean survival time, dose: 20.0 mg/kg/injection, schedule: Q01DX009 (ip), vehicle: Klucel (hydroxypropylcellulose) (HPC)",97 % of control
same,T/C,"endpoint: mean survival time, dose: 40.0 mg/kg/injection, schedule: Q01DX009 (ip), vehicle: Klucel (hydroxypropylcellulose) (HPC)",89 % of control
CN(C)S(=O)(=O)Oc1ccc(N)cc1,T/C,[6],103 % of control
same,T/C,[7],101 % of control
same,T/C,[8],104 % of control
C[PH+](C)C.C[PH+](C)C.[Au],T/C,"endpoint: median survival time, dose: 0.62 mg/kg/injection, schedule: Q01DX009 (ip), vehicle: saline",101 % of control
same,T/C,"endpoint: median survival time, dose: 1.25 mg/kg/injection, schedule: Q01DX009 (ip), vehicle: saline",101 % of control
same,T/C,"endpoint: median survival time, dose: 2.5 mg/kg/injection, schedule: Q01DX009 (ip), vehicle: saline",101 % of control
same,T/C,"endpoint: median survival time, dose: 5.0 mg/kg/injection, schedule: Q01DX009 (ip), vehicle: saline",101 % of control
same,T/C,"endpoint: median survival time, dose: 10.0 mg/kg/injection, schedule: Q01DX009 (ip), vehicle: saline",101 % of control
c1cc(N2CCCC2)cc(N2CCCC2)c1,T/C,[1],96 % of control
same,T/C,[6],102 % of control
same,T/C,[9],88 % of control
same,T/C,[7],106 % of control
same,T/C,[10],88 % of control
same,T/C,[8],98 % of control
N#Cc1ncc(Cl)cc1[N+](=O)[O-],T/C,"endpoint: mean survival time, dose: 12.5 mg/kg/injection, schedule: Q04DX003 (ip), vehicle: saline with Tween-80",101 % of control
same,T/C,"endpoint: mean survival time, dose: 25.0 mg/kg/injection, schedule: Q04DX003 (ip), vehicle: saline with Tween-80",101 % of control
same,T/C,"endpoint: mean survival time, dose: 50.0 mg/kg/injection, schedule: Q04DX003 (ip), vehicle: saline with Tween-80",101 % of control
Cc1cc(N)c(S(=O)(=O)NO)cc1Cl,T/C,[3],96 % of control
same,T/C,[4],96 % of control
same,T/C,[5],102 % of control
COc1c(C=O)c2c(c(OC)c1OC)-c1ccc(OC)c(=O)cc1[C@@H](NC(C)=O)CC2,T/C,"endpoint: median survival time, dose: 12.5 mg/kg/injection, schedule: Q01DX009 (ip), vehicle: Klucel (hydroxypropylcellulose) (HPC)",100 % of control
C=CCCCCCCCCC(=O)NCC(C)C,T/C,[1],104 % of control
same,T/C,[6],91 % of control
same,T/C,[9],104 % of control
same,T/C,[7],102 % of control
same,T/C,[10],98 % of control
same,T/C,[8],100 % of control
CCOC(=S)S,T/C,"endpoint: mean survival time, dose: 100.0 mg/kg/injection, schedule: Q01DX009 (ip), vehicle: saline sonified",103 % of control
same,T/C,"endpoint: mean survival time, dose: 100.0 mg/kg/injection, schedule: Q04DX003 (ip), vehicle: saline",96 % of control
same,T/C,"endpoint: mean survival time, dose: 200.0 mg/kg/injection, schedule: Q01DX009 (ip), vehicle: saline sonified",97 % of control
same,T/C,"endpoint: mean survival time, dose: 400.0 mg/kg/injection, schedule: Q04DX003 (ip), vehicle: saline",104 % of control
O=[N+]([O-])c1c(O)c(CNCCCO)cc(CNCCCO)c1O,T/C,"endpoint: median survival time, dose: 6.25 mg/kg/injection, schedule: Q01DX009 (ip), vehicle: saline",100 % of control
same,T/C,"endpoint: median survival time, dose: 12.5 mg/kg/injection, schedule: Q01DX009 (ip), vehicle: saline",97 % of control
same,T/C,"endpoint: median survival time, dose: 25.0 mg/kg/injection, schedule: Q01DX009 (ip), vehicle: saline",88 % of control
same,T/C,"endpoint: median survival time, dose: 50.0 mg/kg/injection, schedule: Q01DX009 (ip), vehicle: saline",92 % of control
CC(SC(C)c1ccccc1)c1ccccc1 (configuration not stated),T/C,[1],98 % of control
same,T/C,[6],90 % of control
same,T/C,[9],98 % of control
same,T/C,[7],93 % of control
same,T/C,[10],102 % of control
same,T/C,[8],90 % of control
CCOC(=O)/C=C/CP(=O)(OCC)OCC,T/C,[11],102 % of control
CN(C)c1ccn(C2OC(CO)C(O)C2O)c(=O)n1 (configuration not stated),T/C,"endpoint: mean survival time, dose: 100.0 mg/kg/injection, schedule: Q01DX005 (ip), vehicle: water",107 % of control
same,T/C,"endpoint: mean survival time, dose: 200.0 mg/kg/injection, schedule: Q01DX005 (ip), vehicle: water",103 % of control
same,T/C,"endpoint: mean survival time, dose: 400.0 mg/kg/injection, schedule: Q01DX005 (ip), vehicle: water",115 % of control
CCOC(OCC)n1ncnc1NC(=S)NCc1ccccc1,T/C,"endpoint: mean survival time, dose: 12.5 mg/kg/injection, schedule: Q01DX001 (ip), vehicle: carboxymethylcellulose (CMC)",100 % of control
same,T/C,"endpoint: mean survival time, dose: 25.0 mg/kg/injection, schedule: Q01DX001 (ip), vehicle: carboxymethylcellulose (CMC)",95 % of control
same,T/C,[11],93 % of control
same,T/C,"endpoint: mean survival time, dose: 100.0 mg/kg/injection, schedule: Q01DX001 (ip), vehicle: carboxymethylcellulose (CMC)",108 % of control
same,T/C,"endpoint: mean survival time, dose: 200.0 mg/kg/injection, schedule: Q01DX001 (ip), vehicle: carboxymethylcellulose (CMC)",91 % of control

# — PubChem BioAssay AID256 (DTP/NCI, 2004)
